# Results taken from patent publication US12371428B2 (Exelixis, Inc., priority 2019, dated 2025).
# Structures can show the parent of a compound that is named as a salt.
# Experiments:
# [1] = molecular target: Met (phospho-Met, HGF-stimulated PC-3 prostate cancer cells) (Homo sapiens (Human), UniProt P08581); assay: Met autophosphorylation ELISA in PC-3 cells (Example F); type: cell-based; details: cellular activity; Met autophosphorylation ELISA in PC-3 cells; read-out: c-Met IC50
# In short: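 Sandwich ELISA for phospho-Met (panTyr) in PC-3 lysates. Cells starved 3 h serum-free, compound 1 h (8-pt curve, 0.3% DMSO), HGF 100 ng/mL 10 min. 100% = HGF + DMSO; 0% = HGF + reference inhibitor. IC50 by 4-parameter fit.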
# [2] = molecular target: KDR (phospho-KDR, VEGF165-stimulated HUVEC cells) (Homo sapiens (Human), UniProt P35968); assay: KDR autophosphorylation ELISA in HUVEC cells (Example G); type: cell-based; details: cellular activity; KDR autophosphorylation ELISA in HUVEC cells
# In short: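 First, endothelial cells were cultured a day, then kept without serum for another day. Next came 1 h with serially diluted compound, a brief 5 min VEGF165 stimulus (100 ng/mL), rapid lysis, and ELISA detection of receptor phosphorylation relative to stimulated and non-stimulated controls.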
# Sequence of KDR (phospho-KDR, VEGF165-stimulated HUVEC cells) (P35968 20-1356): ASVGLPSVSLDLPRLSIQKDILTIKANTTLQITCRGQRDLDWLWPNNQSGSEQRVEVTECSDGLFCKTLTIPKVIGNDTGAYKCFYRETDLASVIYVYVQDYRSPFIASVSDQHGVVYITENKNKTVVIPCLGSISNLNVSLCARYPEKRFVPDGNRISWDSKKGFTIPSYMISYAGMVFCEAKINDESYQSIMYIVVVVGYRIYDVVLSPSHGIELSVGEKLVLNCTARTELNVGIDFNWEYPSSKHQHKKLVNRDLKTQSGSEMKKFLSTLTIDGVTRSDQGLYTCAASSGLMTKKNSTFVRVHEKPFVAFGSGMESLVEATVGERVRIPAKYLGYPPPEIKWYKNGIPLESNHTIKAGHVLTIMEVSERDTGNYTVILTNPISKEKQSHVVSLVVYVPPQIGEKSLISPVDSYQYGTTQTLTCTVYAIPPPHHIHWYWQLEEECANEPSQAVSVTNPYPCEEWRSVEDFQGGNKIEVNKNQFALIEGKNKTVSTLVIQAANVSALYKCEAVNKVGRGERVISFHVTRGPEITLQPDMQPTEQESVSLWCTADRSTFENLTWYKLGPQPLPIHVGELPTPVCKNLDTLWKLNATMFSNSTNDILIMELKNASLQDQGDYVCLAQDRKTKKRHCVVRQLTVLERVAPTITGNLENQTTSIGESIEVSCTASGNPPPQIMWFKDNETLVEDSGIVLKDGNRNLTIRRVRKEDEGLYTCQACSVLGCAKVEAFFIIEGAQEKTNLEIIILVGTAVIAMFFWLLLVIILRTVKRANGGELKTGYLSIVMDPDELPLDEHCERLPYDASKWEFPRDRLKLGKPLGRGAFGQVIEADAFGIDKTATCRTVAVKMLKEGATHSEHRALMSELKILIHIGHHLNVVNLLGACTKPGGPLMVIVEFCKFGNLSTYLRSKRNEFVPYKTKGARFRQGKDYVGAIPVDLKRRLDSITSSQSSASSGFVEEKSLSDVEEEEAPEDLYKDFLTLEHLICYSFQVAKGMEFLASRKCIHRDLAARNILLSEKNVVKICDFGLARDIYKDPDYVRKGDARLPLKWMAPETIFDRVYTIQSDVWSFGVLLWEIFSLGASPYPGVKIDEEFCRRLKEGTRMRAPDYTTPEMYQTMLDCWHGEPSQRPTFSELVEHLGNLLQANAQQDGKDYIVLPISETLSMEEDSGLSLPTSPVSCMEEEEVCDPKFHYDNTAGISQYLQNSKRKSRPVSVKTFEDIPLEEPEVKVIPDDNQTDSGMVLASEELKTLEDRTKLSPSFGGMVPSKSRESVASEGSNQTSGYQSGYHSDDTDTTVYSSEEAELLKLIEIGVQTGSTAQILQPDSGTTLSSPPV
# Sequence of Met (phospho-Met, HGF-stimulated PC-3 prostate cancer cells) (P08581 25-1390): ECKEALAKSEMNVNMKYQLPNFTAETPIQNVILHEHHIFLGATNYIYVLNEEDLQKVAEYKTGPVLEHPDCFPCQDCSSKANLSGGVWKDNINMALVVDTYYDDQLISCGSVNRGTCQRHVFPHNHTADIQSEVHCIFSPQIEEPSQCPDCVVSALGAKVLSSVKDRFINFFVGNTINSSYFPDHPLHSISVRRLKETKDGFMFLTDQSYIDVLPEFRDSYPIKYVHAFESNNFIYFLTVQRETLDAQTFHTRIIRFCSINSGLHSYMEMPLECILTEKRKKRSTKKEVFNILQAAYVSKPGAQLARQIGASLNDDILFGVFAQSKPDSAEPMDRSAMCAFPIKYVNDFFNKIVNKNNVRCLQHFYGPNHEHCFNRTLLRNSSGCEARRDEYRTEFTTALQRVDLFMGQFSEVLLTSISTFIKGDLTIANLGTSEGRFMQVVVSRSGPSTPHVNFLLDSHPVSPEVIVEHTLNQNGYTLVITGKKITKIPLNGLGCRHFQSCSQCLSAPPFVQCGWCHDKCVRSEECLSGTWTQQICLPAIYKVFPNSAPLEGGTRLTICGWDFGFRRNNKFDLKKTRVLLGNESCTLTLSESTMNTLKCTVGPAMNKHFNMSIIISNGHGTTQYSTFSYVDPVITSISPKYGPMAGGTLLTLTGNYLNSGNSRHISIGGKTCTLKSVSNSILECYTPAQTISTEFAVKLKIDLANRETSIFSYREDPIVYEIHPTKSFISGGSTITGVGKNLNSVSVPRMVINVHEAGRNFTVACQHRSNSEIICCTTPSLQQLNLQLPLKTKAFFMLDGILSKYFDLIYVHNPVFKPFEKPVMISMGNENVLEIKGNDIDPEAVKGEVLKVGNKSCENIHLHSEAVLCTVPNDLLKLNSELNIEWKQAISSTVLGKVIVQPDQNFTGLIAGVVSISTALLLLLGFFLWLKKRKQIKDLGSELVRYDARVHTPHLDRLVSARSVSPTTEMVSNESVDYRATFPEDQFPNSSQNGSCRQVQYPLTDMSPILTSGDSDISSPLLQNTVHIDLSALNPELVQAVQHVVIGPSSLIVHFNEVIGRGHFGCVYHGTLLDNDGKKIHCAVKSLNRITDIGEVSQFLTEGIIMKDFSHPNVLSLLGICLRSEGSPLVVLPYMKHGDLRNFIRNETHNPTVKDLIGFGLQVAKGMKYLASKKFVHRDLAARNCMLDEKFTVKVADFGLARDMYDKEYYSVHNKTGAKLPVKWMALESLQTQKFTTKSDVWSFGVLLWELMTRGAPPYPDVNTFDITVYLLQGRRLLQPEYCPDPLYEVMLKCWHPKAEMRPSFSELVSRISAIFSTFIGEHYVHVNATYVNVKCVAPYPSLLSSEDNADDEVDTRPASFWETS
SMILES,IC50 [1],IC50 [2]
"CCc1nc(C)c(-c2ccc(F)cc2)c(O)c1C(=O)Nc1ccc(Oc2ccnc3ccc(OC)nc23)c(F)c1 [Compound 182, 2-Ethyl-N-[3-fluoro-4-[(6-methoxy-1,5-naphthyridin-4-yl)oxy]phenyl]-5-(4-fluorophenyl)-4-hydroxy-6-methylpyridine-3-carboxamide]",< 100 nM,< 100 nM
"COCCOc1nc2c(Oc3ccc(NC(=O)c4n[nH]c(C)c(-c5ccc(F)cc5C)c4=O)cc3F)ccnc2cc1OC [Compound 252, N-[3-Fluoro-4-[[7-methoxy-6-(2-methoxyethoxy)-1,5-naphthyridin-4-yl]oxy]phenyl]-5-(4-fluoro-2-methylphenyl)-6-methyl-4-oxo-1H-pyridazine-3-carboxamide]",< 100 nM,< 100 nM
"COCCOc1nc2c(Oc3ccc(NC(=O)c4cn(C)c(CO)c(-c5ccc(F)cc5)c4=O)cc3F)ccnc2cc1OC [Compound 228, N-[3-Fluoro-4-[[7-methoxy-6-(2-methoxyethoxy)-1,5-naphthyridin-4-yl]oxy]phenyl]-5-(4-fluorophenyl)-6-(hydroxymethyl)-1-methyl-4-oxopyridine-3-carboxamide]",< 100 nM,> 300 nM
"COCc1nc(C)c(-c2ccc(F)cc2)c(O)c1C(=O)Nc1ccc(Oc2ccnc3cc(OC)cnc23)c(F)c1 [Compound 186, N-[3-Fluoro-4-[(7-methoxy-1,5-naphthyridin-4-yl)oxy]phenyl]-5-(4-fluorophenyl)-4-hydroxy-2-(methoxymethyl)-6-methylpyridine-3-carboxamide]",< 100 nM,< 100 nM
"COCc1nc(C)c(-c2ccc(F)cc2C)c(O)c1C(=O)Nc1ccc(Oc2ccnc3cc(OC)cnc23)c(F)c1 [Compound 193, N-[3-Fluoro-4-[(7-methoxy-1,5-naphthyridin-4-yl)oxy]phenyl]-5-(4-fluoro-2-methylphenyl)-4-hydroxy-2-(methoxymethyl)-6-methylpyridine-3-carboxamide]",< 100 nM,< 100 nM
"COCc1nc(C)c(-c2ccc(F)cc2C)c(O)c1C(=O)Nc1ccc(Oc2ccnc3cc(OC)c(OC)nc23)c(F)c1 [Compound 191, N-[4-[(6,7-Dimethoxy-1,5-naphthyridin-4-yl)oxy]-3-fluorophenyl]-5-(4-fluoro-2-methylphenyl)-4-hydroxy-2-(methoxymethyl)-6-methylpyridine-3-carboxamide]",< 100 nM,< 100 nM
"COc1cc2nccc(Oc3ccc(NC(=O)c4ccc(C)n(-c5ccc(F)cc5)c4=O)cc3)c2nc1OC [Compound 229, N-[4-[(6,7-Dimethoxy-1,5-naphthyridin-4-yl)oxy]phenyl]-1-(4-fluorophenyl)-6-methyl-2-oxopyridine-3-carboxamide]",< 100 nM,< 100 nM
"COc1ccc2nccc(Oc3ccc(NC(=O)c4c(C)ncn(-c5ccc(F)cc5)c4=O)cc3F)c2n1 [Compound 234, N-[3-Fluoro-4-[(6-methoxy-1,5-naphthyridin-4-yl)oxy]phenyl]-1-(4-fluorophenyl)-4-methyl-6-oxopyrimidine-5-carboxamide]",< 100 nM,100 to 300 nM
"COc1cnc2c(Oc3ccc(NC(=O)c4cnc(CO)c(-c5ccc(F)cc5)c4O)cc3F)ccnc2c1 [Compound 217, N-[3-Fluoro-4-[(7-methoxy-1,5-naphthyridin-4-yl)oxy]phenyl]-5-(4-fluorophenyl)-4-hydroxy-6-(hydroxymethyl)pyridine-3-carboxamide]",< 100 nM,< 100 nM
"COCc1nc(C)c(-c2ccc(F)cc2)c(O)c1C(=O)Nc1ccc(Oc2ccnc3cc(OC)cnc23)cc1 [Compound 185, 5-(4-Fluorophenyl)-4-hydroxy-2-(methoxymethyl)-N-[4-[(7-methoxy-1,5-naphthyridin-4-yl)oxy]phenyl]-6-methylpyridine-3-carboxamide]",< 100 nM,< 100 nM
"COc1ccc2nccc(Oc3ccc(NC(=O)c4c(C)n(C)cc(-c5ccc(F)cc5)c4=O)cc3F)c2n1 [Compound 243, N-[3-Fluoro-4-[(6-methoxy-1,5-naphthyridin-4-yl)oxy]phenyl]-5-(4-fluorophenyl)-1,2-dimethyl-4-oxopyridine-3-carboxamide]",< 100 nM,> 300 nM
"COc1cc2nccc(Oc3ccc(NC(=O)c4n[nH]c(C)c(-c5ccc(F)cc5C)c4=O)cc3)c2nc1OC [Compound 247, N-[4-[(6,7-Dimethoxy-1,5-naphthyridin-4-yl)oxy]phenyl]-5-(4-fluoro-2-methylphenyl)-6-methyl-4-oxo-1H-pyridazine-3-carboxamide]",< 100 nM,< 100 nM
"COc1ccc(-c2c(C)n(C(C)C)cc(C(=O)Nc3ccc(Oc4ccnc5cc(OC)c(OC)nc45)c(F)c3)c2=O)cc1 [Compound 31, N-[4-[(6,7-dimethoxy-1,5-naphthyridin-4-yl)oxy]-3-fluorophenyl]-5-(4-methoxyphenyl)-6-methyl-4-oxo-1-propan-2-ylpyridine-3-carboxamide hydrochloride]",100 to 300 nM,> 300 nM
"COCCOc1nc2c(Oc3ccc(NC(=O)c4cn(C)c(C)c(-c5ccc(F)cc5)c4=O)cc3F)ccnc2cc1OC [Compound 198, N-[3-Fluoro-4-[[7-methoxy-6-(2-methoxyethoxy)-1,5-naphthyridin-4-yl]oxy]phenyl]-5-(4-fluorophenyl)-1,6-dimethyl-4-oxopyridine-3-carboxamide]",< 100 nM,< 100 nM
"COc1cc2nccc(Oc3ccc(NC(=O)c4cn(C(C)C)c(C)c(-c5cccc(F)c5)c4=O)cc3F)c2nc1OC [Compound 30, N-[4-[(6,7-Dimethoxy-1,5-naphthyridin-4-yl)oxy]-3-fluorophenyl]-5-(3-fluorophenyl)-6-methyl-4-oxo-1-propan-2-ylpyridine-3-carboxamide hydrochloride]",< 100 nM,> 300 nM

# Other lines, results leading:
IC50 [1],IC50 [2],SMILES
< 100 nM,> 300 nM,"COc1cc2nccc(Oc3ccc(NC(=O)c4cn(C(C)C)c(C)c(-c5ccc(F)cc5C)c4=O)cc3F)c2nc1OC [Compound 32, N-[4-[(6,7-Dimethoxy-1,5-naphthyridin-4-yl)oxy]-3-fluorophenyl]-5-(4-fluoro-2-methylphenyl)-6-methyl-4-oxo-1-propan-2-ylpyridine-3-carboxamide hydrochloride]"
< 100 nM,< 100 nM,"COc1cnc2c(Oc3ccc(NC(=O)c4c(C)nc(C)n(-c5ccc(F)cc5)c4=O)cc3F)ccnc2c1 [Compound 257, N-[3-Fluoro-4-[(7-methoxy-1,5-naphthyridin-4-yl)oxy]phenyl]-1-(4-fluorophenyl)-2,4-dimethyl-6-oxopyrimidine-5-carboxamide]"
< 100 nM,< 100 nM,"CCc1nc(C)c(-c2ccc(F)cc2)c(O)c1C(=O)Nc1ccc(Oc2ccnc3cc(OC)cnc23)cc1 [Compound 188, 2-Ethyl-5-(4-fluorophenyl)-4-hydroxy-N-[4-[(7-methoxy-1,5-naphthyridin-4-yl)oxy]phenyl]-6-methylpyridine-3-carboxamide]"
< 100 nM,< 100 nM,"CCc1nc(C)c(-c2ccc(F)cc2)c(O)c1C(=O)Nc1ccc(Oc2ccnc3cc(OC)cnc23)c(F)c1 [Compound 180, 2-Ethyl-N-[3-fluoro-4-[(7-methoxy-1,5-naphthyridin-4-yl)oxy]phenyl]-5-(4-fluorophenyl)-4-hydroxy-6-methylpyridine-3-carboxamide]"
100 to 300 nM,> 300 nM,"COc1ccc2nccc(Oc3ccc(NC(=O)c4cn(C)c(CO)c(-c5ccc(F)cc5)c4=O)cc3F)c2n1 [Compound 224, N-[3-Fluoro-4-[(6-methoxy-1,5-naphthyridin-4-yl)oxy]phenyl]-5-(4-fluorophenyl)-6-(hydroxymethyl)-1-methyl-4-oxopyridine-3-carboxamide]"
< 100 nM,< 100 nM,"COc1cc2nccc(Oc3ccc(NC(=O)c4cn(C)cc(-c5ccccc5)c4=O)cc3F)c2nc1OC [Compound 33, N-[4-[(6,7-Dimethoxy-1,5-naphthyridin-4-yl)oxy]-3-fluorophenyl]-1-methyl-4-oxo-5-phenylpyridine-3-carboxamide hydrochloride]"
< 100 nM,100 to 300 nM,"COc1cnc2c(Oc3ccc(NC(=O)c4n[nH]c(C)c(-c5ccc(F)cc5C)c4=O)cc3F)ccnc2c1 [Compound 249A, N-[3-Fluoro-4-[(7-methoxy-1,5-naphthyridin-4-yl)oxy]phenyl]-5-(4-fluoro-2-methylphenyl)-6-methyl-4-oxo-1H-pyridazine-3-carboxamide]"
< 100 nM,< 100 nM,"COc1cnc2c(Oc3ccc(NC(=O)c4nnc(C)c(-c5ccc(F)cc5C)c4O)cc3F)ccnc2c1 (single isomer, unassigned) [Compound 249B, N-[3-Fluoro-4-[(7-methoxy-1,5-naphthyridin-4-yl)oxy]phenyl]-5-(4-fluoro-2-methylphenyl)-4-hydroxy-6-methylpyridazine-3-carboxamide]"
< 100 nM,> 300 nM,"CCn1cc(-c2ccc(F)cc2)c(=O)c(C(=O)Nc2ccc(Oc3ccnc4cc(OC)cnc34)c(F)c2)c1C [Compound 240, 1-Ethyl-N-[3-fluoro-4-[(7-methoxy-1,5-naphthyridin-4-yl)oxy]phenyl]-5-(4-fluorophenyl)-2-methyl-4-oxopyridine-3-carboxamide]"
< 100 nM,< 100 nM,"COCc1nc(C)c(-c2ccc(F)cc2C)c(O)c1C(=O)Nc1ccc(Oc2ccnc3ccc(OC)nc23)c(F)c1 [Compound 195, N-[3-Fluoro-4-[(6-methoxy-1,5-naphthyridin-4-yl)oxy]phenyl]-5-(4-fluoro-2-methylphenyl)-4-hydroxy-2-(methoxymethyl)-6-methylpyridine-3-carboxamide]"
